This is an account of results in patent publication US20100204182A1, “ECTONUCLEOTIDASE INHIBITORS” (RHEINISCHE FRIEDRICH-WILHELMS-UNIVERSITAT BONN, priority 2006, published 2010).

Assay [1] concerns the target T1, human NTPDase8 (Homo sapiens, UniProt Q5MY95).
T1 sequence (Q5MY95 1-495): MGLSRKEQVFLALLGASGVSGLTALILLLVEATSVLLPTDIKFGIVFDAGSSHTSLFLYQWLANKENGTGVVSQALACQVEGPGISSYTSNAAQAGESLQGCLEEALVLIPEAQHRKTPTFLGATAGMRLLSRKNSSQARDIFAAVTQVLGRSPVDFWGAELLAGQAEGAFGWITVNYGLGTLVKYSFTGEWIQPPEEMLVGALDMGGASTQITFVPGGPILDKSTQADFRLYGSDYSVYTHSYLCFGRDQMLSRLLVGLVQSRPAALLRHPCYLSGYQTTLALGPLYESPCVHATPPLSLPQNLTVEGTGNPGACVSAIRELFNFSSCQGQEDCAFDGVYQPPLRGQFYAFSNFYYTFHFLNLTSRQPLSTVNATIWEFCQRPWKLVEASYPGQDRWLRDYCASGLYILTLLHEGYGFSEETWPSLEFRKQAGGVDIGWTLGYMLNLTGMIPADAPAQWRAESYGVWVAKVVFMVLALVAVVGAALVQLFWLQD
As to the kind of experiment: NTPDase inhibition assay by capillary electrophoresis (CE), NTPDase8. Conditions: for Ki: read-out: NTPDase8 Ki [μM] ± SEM; for inhibition at 1000 µM: 1 mM compound. It is filed as biochemical. On the procedure:
(§1) The applied enzyme inhibition assay has been described (Iqbal J, Vollmayer P, Braun N, Zimmermann H, Müller C E. A capillary electrophoresis method for the characterization of ecto-nucleoside triphosphate diphosphohydrolases (NTPDases) and the analysis of inhibitors by in-capillary enzymatic microreaction. Purinergic Signalling 2005, 1, 349-358).
(§2) A. CE instrumentation: All experiments were carried out using a P/ACE MDQ capillary electrophoresis system (Beckman Instruments, Fullerton, Calif., USA) equipped with a UV detection system coupled with a diode-array detector (DAD). Data collection and peak area analysis were performed by the P/ACE MDQ software 32 KARAT obtained from Beckman Coulter. The capillary temperature was kept constant at 25° C. The temperature of the sample storing unit was also adjusted to 25° C. The electrophoretic separations were carried out using an eCAP polyacrylamide-coated fused-silica capillary [(30 cm (20 cm effective length)×50 μm internal diameter (I.D.)×360 μm outside diameter (O.D.), obtained from CS-Chromatographie (Langerwehe, Germany)]. The separation was performed using an applied current of −60 μA and a data acquisition rate of 8 Hz. Analytes were detected using direct UV absorbance at 210 nm. The capillary was conditioned by rinsing with water for 2 min and subsequently with buffer (phosphate 50 mM, pH 6.5) for 1 min. Sample injections were made at the cathodic side of the capillary.
(§3) B. NTPDase inhibition assay by capillary electrophoresis: Enzyme inhibition assays were carried out at 37° C. in a final volume of 100 μl. The reaction mixture contained 320 μM of ATP (substrate) in reaction buffer. The reaction buffer contained 140 mM NaCl, 5 mM KCl, 1 mM MgCl2, 2 mM CaCl2, and 10 mM Hepes, pH 7.4.
(§4) Different concentrations of inhibitors dissolved in DMSO or water (10 μl) were added and the reaction was initiated by the addition of 10 μl of the appropriately diluted recombinant or native human or rat NTPDase enzyme. […] The mixture (final volume 100 μl) was incubated for 15 min and terminated by heating at 99° C. for 4 min. Aliquots of the reaction mixture (50 μl) were then transferred to mini-CE vials and injected into the CE instrument under the conditions described above. 20 μM of UMP was used as internal standard. Inhibition of NTPDase was tested over a range of 6 to 8 concentrations of test compound spanning 3 orders of magnitude to determine K1 values. Each analysis was repeated two times (in triplicates) in two separate experiments. The Cheng-Prusoff equation was used to calculate the K1 values from the IC50 values, determined by the non-linear curve fitting program PRISM® 3.0 (GraphPad, San Diego, Calif., USA). In table 1K, values of selected compounds as inhibitors of human NTPDases are given.

Assay [2] deals with T2, human NTPDase2 (Homo sapiens, UniProt Q9Y5L3).
T2 sequence (Q9Y5L3 1-495): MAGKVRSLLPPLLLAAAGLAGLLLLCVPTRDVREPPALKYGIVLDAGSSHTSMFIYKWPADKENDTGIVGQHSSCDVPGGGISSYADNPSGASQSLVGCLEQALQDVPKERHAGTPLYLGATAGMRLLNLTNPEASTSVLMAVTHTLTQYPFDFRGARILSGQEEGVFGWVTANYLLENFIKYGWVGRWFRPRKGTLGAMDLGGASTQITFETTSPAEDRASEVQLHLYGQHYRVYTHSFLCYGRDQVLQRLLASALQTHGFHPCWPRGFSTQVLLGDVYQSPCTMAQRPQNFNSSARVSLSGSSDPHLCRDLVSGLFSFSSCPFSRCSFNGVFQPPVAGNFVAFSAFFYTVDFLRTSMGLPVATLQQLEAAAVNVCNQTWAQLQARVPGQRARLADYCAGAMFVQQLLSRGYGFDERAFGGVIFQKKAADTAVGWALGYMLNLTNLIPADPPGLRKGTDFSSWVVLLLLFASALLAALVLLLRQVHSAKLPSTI
As to the kind of experiment: NTPDase inhibition assay by capillary electrophoresis (CE), NTPDase2. It is filed as biochemical. Conditions: human NTPDase2; CE method; ATP 320 μM; Km 70 μM; read-out: NTPDase2 Ki [μM] ± SEM.

Assay [3] concerns the target T3, human NTPDase3 (Homo sapiens, UniProt O75355).
T3 sequence (O75355 1-529): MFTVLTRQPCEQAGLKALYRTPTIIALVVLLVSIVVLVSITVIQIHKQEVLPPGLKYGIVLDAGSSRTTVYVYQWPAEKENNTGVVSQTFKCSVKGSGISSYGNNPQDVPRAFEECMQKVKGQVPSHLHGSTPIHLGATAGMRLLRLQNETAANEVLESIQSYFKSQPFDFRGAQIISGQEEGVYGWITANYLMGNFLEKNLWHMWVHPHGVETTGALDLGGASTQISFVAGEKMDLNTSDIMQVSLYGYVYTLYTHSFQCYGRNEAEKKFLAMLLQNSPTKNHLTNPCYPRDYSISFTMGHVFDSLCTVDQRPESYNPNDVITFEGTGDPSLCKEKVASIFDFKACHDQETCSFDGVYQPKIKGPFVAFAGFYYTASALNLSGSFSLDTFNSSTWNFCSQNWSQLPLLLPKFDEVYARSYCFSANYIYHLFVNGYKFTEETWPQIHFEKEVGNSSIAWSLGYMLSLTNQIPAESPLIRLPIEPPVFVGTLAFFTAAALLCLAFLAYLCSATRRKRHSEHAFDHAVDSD
As to the kind of experiment: NTPDase inhibition assay by capillary electrophoresis (CE), NTPDase3. It is filed as biochemical. Conditions: ATP 320 μM; for inhibition at 1000 µM: 1 mM compound; for Ki: CE method, Km 75 μM, read-out: NTPDase3 Ki [μM] ± SEM. On the procedure:
as §1, §2, §3, §4

Assay [4] addresses rP2Y6 (Rattus norvegicus, UniProt Q63371). As to the kind of experiment: Inhibition of UDP binding at rP2Y6. To be noted: read-out: rP2Y6 % inhibition of UDP binding at 100 μM, n = 3, mean ± SEM.
The target in assay [5] is hP2Y12 (Homo sapiens, UniProt Q9H244). As to the kind of experiment: Inhibition of [3H]PSB-0413 binding at hP2Y12. To be noted: mean ± SEM, read-out: hP2Y12 % Inhibition of [^3H]PSB-0413 Binding at 10 μM, n = 3. As to the method:
In table 2 inhibition data of selected examples at human P2Y receptor subtypes were collected. It can be seen that no compound was identified that inhibited P2Y receptors at high concentrations of 100 μM and 10 μM, respectively.

The target in assay [6] is T4, human NTPDase1 (Homo sapiens, UniProt P49961).
T4 sequence (P49961 1-510): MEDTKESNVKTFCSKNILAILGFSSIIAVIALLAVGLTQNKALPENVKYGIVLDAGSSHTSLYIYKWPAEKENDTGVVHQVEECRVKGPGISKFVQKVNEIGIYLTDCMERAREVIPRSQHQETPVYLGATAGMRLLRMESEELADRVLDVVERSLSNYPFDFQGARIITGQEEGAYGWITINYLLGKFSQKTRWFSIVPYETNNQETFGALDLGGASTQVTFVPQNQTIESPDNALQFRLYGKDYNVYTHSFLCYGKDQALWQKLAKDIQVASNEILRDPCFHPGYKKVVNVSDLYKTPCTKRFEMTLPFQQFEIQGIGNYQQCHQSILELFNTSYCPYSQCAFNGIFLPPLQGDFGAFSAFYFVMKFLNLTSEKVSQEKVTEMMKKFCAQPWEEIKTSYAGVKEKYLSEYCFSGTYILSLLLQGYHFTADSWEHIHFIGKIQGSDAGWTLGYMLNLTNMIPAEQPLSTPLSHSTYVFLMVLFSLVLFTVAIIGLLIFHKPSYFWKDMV
As to the kind of experiment: NTPDase inhibition assay by capillary electrophoresis (CE), NTPDase1. It is filed as biochemical. Conditions: ATP 320 μM; for Ki: CE method, Km 17 μM, read-out: NTPDase1 Ki [μM] ± SEM; for inhibition at 1000 µM: 1 mM compound. As to the method:
as §1, §2, §3, §4

The structures appear in SMILES notation. Like-named read-outs stand apart in the source and are kept apart here.

Chain of rP2Y6 (Q63371 whole entry): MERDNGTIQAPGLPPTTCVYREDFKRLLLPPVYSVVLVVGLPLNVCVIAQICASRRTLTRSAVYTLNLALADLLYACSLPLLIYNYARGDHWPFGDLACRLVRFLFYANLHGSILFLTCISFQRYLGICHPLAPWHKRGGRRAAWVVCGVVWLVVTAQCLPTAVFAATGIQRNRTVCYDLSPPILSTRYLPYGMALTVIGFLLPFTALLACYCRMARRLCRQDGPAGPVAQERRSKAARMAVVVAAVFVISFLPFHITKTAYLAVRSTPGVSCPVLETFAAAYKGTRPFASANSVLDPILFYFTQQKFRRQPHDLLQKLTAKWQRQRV
Chain of hP2Y12 (Q9H244 whole entry): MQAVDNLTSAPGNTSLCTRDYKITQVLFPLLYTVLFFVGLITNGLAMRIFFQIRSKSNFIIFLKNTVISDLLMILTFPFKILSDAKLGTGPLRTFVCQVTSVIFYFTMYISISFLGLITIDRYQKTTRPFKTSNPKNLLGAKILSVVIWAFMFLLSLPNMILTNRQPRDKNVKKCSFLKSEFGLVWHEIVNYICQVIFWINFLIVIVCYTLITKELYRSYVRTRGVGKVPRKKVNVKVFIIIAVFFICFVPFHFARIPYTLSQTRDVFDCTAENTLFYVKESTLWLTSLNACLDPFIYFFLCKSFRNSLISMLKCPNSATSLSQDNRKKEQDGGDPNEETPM

`CCOP(=O)(Cc1ccc(NC(=O)CCCNC(=O)[C@H]2O[C@@H](n3ccc(=O)[nH]c3=O)C(O)C2O)cc1)OCC` (stereo in doubt) [Compound 4, 4-[4-((2S,3R,4S,5R)-5-(2,4-Dioxo-3,4-dihydropyrimidin-1(2H)-yl)-3,4-dihydroxy-tetrahydrofurane-2-carboxamido)butaneamido]benzylphosphonic acid diethylester]: the Ki in assay [1] (human NTPDase8, CE method, ATP 320 μM, Km 46 μM) was 242 ± 39.3 µM; in assay [2], 210 ± 25.3 µM; in assay [3], above 200 µM; in assay [6], 182 ± 24.3 µM. Also, the inhibition at 1000 µM in assay [3] amounted to 48%. Besides, in assay [4], the inhibition at 100 µM is -8 ± 11%. In addition, the inhibition at 10 µM in assay [5] was 6 ± 4%.
As for `CCOP(=O)(CNC(=O)CCNC(=O)[C@H]1O[C@@H](n2ccc(=O)[nH]c2=O)[C@H](O)[C@@H]1O)OCC` [Compound 6, 3-[(2S,3R,4S,5R)-5-(2,4-Dioxo-3,4-dihydropyrimidin-1(2H)-yl)-3,4-dihydroxy-tetrahydrofurane-2-carboxamido]pronaneamidomethylphosphonic acid diethylester], the inhibition at 1000 µM came out at 0% in assay [1] (human NTPDase8, ATP 320 μM); 0% in assay [3]; 0% in assay [6]. Moreover, the Ki was above 100 µM in assay [1], 167 ± 21 µM in assay [2], above 200 µM in assay [3] and above 50 µM in assay [6]. The inhibition at 100 µM in assay [4] is -3 ± 2%. Further, the inhibition at 10 µM in assay [5] was found to be 7 ± 5%.
As to `CCOP(=O)(CNC(=O)CNC(=O)[C@H]1O[C@@H](n2ccc(=O)[nH]c2=O)C(O)C1O)OCC` (stereo in doubt) [Compound 5, 2-[(2S,3R,4S,5R)-5-(2,4-Dioxo-3,4-dihydropyrimidin-1(2H)-yl)-3,4-dihydroxy-tetrahydrofurane-2-carboxamido]ethaneamidomethylphosphonic acid diethylester], the inhibition at 1000 µM in assay [1] (human NTPDase8, ATP 320 μM) is 0%; in assay [3] it was 0%. Further, the Ki in assay [1] was above 100 µM; in assay [2], 71.7 ± 13.5 µM; in assay [3] it was above 200 µM; in assay [6] it was 786 ± 33 µM. Moreover, the inhibition at 100 µM in assay [4] worked out at 17 ± 16%. For the same compound, the inhibition at 10 µM in assay [5] is 31 ± 1%.
For `CCOP(=O)(CNC(=O)CCCNC(=O)[C@H]1O[C@@H](n2ccc(=O)[nH]c2=O)C(O)C1O)OCC` (stereo in doubt) [Compound 7, 4-[(2S,3R,4S,5R)-5-(2,4-Dioxo-3,4-dihydropyrimidin-1(2H)-yl)-3,4-dihydroxy-tetrahydrofurane-2-carboxamido]butaneamidomethylphosphonic acid diethylester], the inhibition at 1000 µM in assay [1] (human NTPDase8, ATP 320 μM) is 0%; in assay [3] it was 0%; in assay [6], 45%. For the same compound, the Ki was above 100 µM in assay [1], 29.2 ± 2.7 µM in assay [2], above 200 µM in assay [3] and above 50 µM in assay [6]. In addition, the inhibition at 100 µM in assay [4] was -3 ± 11%. In assay [5], the inhibition at 10 µM is 2 ± 8%.
As for `CCOP(=O)(CCNC(=O)CNC(=O)[C@H]1O[C@@H](n2ccc(=O)[nH]c2=O)C(O)C1O)OCC` (stereo in doubt) [Compound 8, 2-[2-((2S,3R,4S,5R)-5-(2,4-Dioxo-3,4-dihydropyrimidin-1(2H)-yl)-3,4-dihydroxy-tetrahydrofurane-2-carboxamido)ethaneamido]ethylphosphonic acid diethylester], the inhibition at 1000 µM in assay [1] (human NTPDase8, ATP 320 μM) was 0%; in assay [3] it was 22%; in assay [6], 0%. Moreover, the Ki is above 100 µM in assay [1], 116 ± 24 µM in assay [2], above 200 µM in assay [3] and above 50 µM in assay [6]. In assay [4], the inhibition at 100 µM was 9 ± 13%. In assay [5], the inhibition at 10 µM was 2 ± 3%.

A word on the Ki: it is a dissociation constant, usually derived from enzyme kinetics or from competition with a known ligand. In general, inhibition refers to the relative decrease from the control value, in per cent.
